Experimental data from patent publication US20030180952A1, “Plant regeneration” (Sugar Research & Development Corporation, priority 2000, published 2003).

What was measured:
[1] = test system: inflorescence explants of sugarcane Q152; test: Regeneration from inflorescence explants; type: cell-based; details: Table 18 (b) ˜8 mm pieces of main floral axis placed laterally
Experimental: Table 18: Comparison of regeneration efficiency for different sugarcane explants. Explants were (a) 2-3 mm sections of main floral axis of inflorescence; (b) ˜8 mm sections of main floral axis placed laterally on the culture medium; (c) immature floral tissues dissociated from floral axis; and (d) whole 2-3 mm sections of inflorescence oriented “top down”. B4N10=4 μM BA+10 μM NAA; B4N40=4 μM BA+40 μM NAA; B4N60=4 μM BA+60 μM NAA; 2,4D14=14 μM 2,4,D. “Top down” orientation is as previously described. Shoot frequency legend: *1-2 shoots per explant; **3-10 shoots per explant; ***greater than […] shoots per explant.
Young bolting inflorescence “stalk” tissue enveloped in developing leaves (floral and leaf components) was harvested from above the apical meristem of Q152 or Q165 sugarcane plants. Transverse sections were made to produce 2-3 mm thin sections of the tissue.
(§1) Murashige & Skoog (MS) nutrient formulation supplemented with 30 g/L sucrose and 7.5 g/L Difco agar were used as the basal culture medium. Basal medium was enriched with different concentrations and combinations of (i) a cytokinin: 6-benzylaminopourine (BA) or kinetin (KIN); (ii) an auxin: α-napthaleneacetic acid (NAA); and (iii) anti-oxidants: citric acid (CA), ascorbic acid (AA), or dithiothreitol (DTT); depending on the experimental objective. […]

[2] = test system: leaf whorl explants of sugarcane cultivar Q165; test: Somatic embryogenesis / shoot regeneration in leaf whorl explants; type: cell-based; details: sugarcane leaf section cultures
Experimental: Table 19: Morphogenic response of leaf whorl explants (1.0-2.0 mm thick) of sugarcane cultivar Q165 after 8 weeks of culture on MS medium supplemented with chlorophenoxyacetic acid (CPA). Ten replicates, each with 10 explants placed in top down orientation, were maintained for each treatment. Explants were cultured under dark condition for the initial 5-6 weeks and then transferred to light (16 hr/day) for further shoot/planlet development. C=Mostly non-embroygenic callus was produced.
Table 20: Morphogenic response of leaf whorl explants (1.0-2.0 mm thick) of sugarcane cultivar Q165 after 8 weeks of culture on MS mediun supplemented with chlorophenoxyacefic acid (CPA). Ten replicates, each with 10 explants placed in top down orientation, were maintained for each treatment. All cultures received 16 hr light every day.
Table 21: Shoot regeneration in 1.0-2.0 mm thick leaf whorl explants of sugarcane cultivar Q165 after 8 weeks of culture on MS medium containing 6-benzyladenine (BA), α-naphthaleneacetic acid (NAA) and cholorophenoxyacetic acid (CPA). Ten replicates, each with 10 explants placed in top down orientation, were maintained for each treatment. All cultures received 16 hr light every day. […]

[3] = test system: leaf explants of sugarcane cultivar Q165; test: Shoot regeneration in leaf explants on MS medium with cytokinin and auxin; type: cell-based; details: at any given concentration of NAA; Tables 7, 8 and 10
Experimental: (§2) Top portions (about 30 cm) of shoots were cut and all leaves except the innermost 3-4 whorls were carefully removed under aseptic conditions. TS explants measuring about 1.0-2.0 mm or 5.0-6.0 mm in thickness were prepared by serial transverse sectioning of the lowermost 3-4 cm portion (just above the apical meristem) of the leaf spindle using a sharp surgical blade under sterile conditions.
as §1, with “objective. The pH of the medium was adjusted to 5.7 before autoclaving for 20 minutes at 120° C.” for “objective.”
Also, the concentrations of BA and NAA were varied in order to determine their influence upon shoot generation. […] The percentage of explants producing shoots were scored, as were the number of shoots produced per explant. […]

[4] = test system: leaf base sections of sorghum variety New Nugget; test: Somatic embryogenesis and shoot production in leaf base sections; type: cell-based, Sorghum bicolor L.; details: for regeneration with other hormone combinations: sorghum
Source text: Table 26: Effect of different levels of cholorophenoxyacetic acid (CPA) on somatic embryogenesis and shoot production in 1.0-2.0 mm thick leaf base sections of sorghum (Sorghum bicolor L.) variety New Nugget after 8 weeks of culture. Five to six replicates, each with 10 explants placed in “top down” orientation, were maintained for each treatment. All cultures received 16 hr light every day.
Table 27: Effect of different levels of cholorophenoxyacetic acid (CPA) and 6-benzyladenine (BA) on somatic embryogenesis and shoot production in 1.0-2.0 mm thick leaf base sections of sorghum (Sorghum bicolor l L.) variety New Nugget after 8 weeks of culture. Five to six replicates, each with 10 explants placed in “top down” orientation, were maintained for each treatment. All cultures received 16 hr light every day.
Young developing leaf sheaths (the innermost 3-4 whorls at the shoot tip) were used as the explant. Explants were preferably 1.0-2.0 mm thick transverse sections taken from the whorls. MS nutrient medium containing 3% sucrose and 7.5 g/L Davis J3 agar was used as the basal medium for all experiments. MS-based medium with several plant growth regulators was tested as a micropropagation medium.

[5] = test system: leaf explants of sugarcane cultivar 91N406; test: Direct shoot regeneration in leaf explants on MS medium with BA and NAA; type: cell-based; details: 91N406 explants; BA 4 μM
Source text: Table 12: Direct shoot regeneration in leaf explants (1-2 mm thick) of sugarcane cultivar 90N876 cultured on MS medium supplemented with 6-benzyladenine (BA) and α-napthaleneacetic acid (NAA) for 8 weeks. Thirty replicates, each with 10 explants cultured in top down orientation, were maintained for each treatment. Table 13: Direct shoot regeneration in leaf explants (1-2 mm thick) of sugarcane cultivar 91N406 cultured on MS medium supplemented with 6-benzyladenie (BA) and α-napthaleneacetic acid (NAA) for 8 weeks. Five replicates, each with 10 explants cultured in top down orientation were maintained for each treatment.
as §2
Murashige & Skoog (MS) nutrient formulation supplemented with 30 g/L sucrose and 7.5 g/L Difco agar were used as the basal culture medium. […]

O=C(O)COc1ccc(Cl)cc1Cl [2,4-D14]
Number of explants showing reg'n [1]: 0
Percentage of explants regenerating [1]: 0%

Nc1cc(Cl)cc(C(=O)O)c1Cl [AD, 3 amino-2,5-dichlorobenzoic acid]
morphological abnormalities in the regenerated plants [2]: developed albinos occasionally

c1coc(CNc2ncnc3[nH]cnc23)c1 [KIN, kinetin]
optimal concentration of cytokinin for shoot regeneration [3]: 4 µM
effect on shoot regeneration ([4]; added after the initial embryo formation): enhanced

O=C(O)Cc1cccc2ccccc12 [NAA, α-napthaleneacetic acid]
optimal concentration of NAA for shoot regeneration [5]: 40 µM

COc1c(Cl)ccc(Cl)c1C(=O)O [dicamba]
regeneration with other hormone combinations [4]: unsucessful
callus growth ([4]; sorghum cultures containing dicamba): some callus growth was seen

Nc1c(Cl)c(Cl)nc(C(=O)O)c1Cl [picloram]
regeneration with other hormone combinations [4]: unsucessful

O=C(Nc1ccccc1)Nc1cnns1 [thidiazuron]
regeneration with other hormone combinations [4]: unsucessful
